Measured values taken from US9453226B2, “Protection of cells from Alu-RNA-induced degeneration and inhibitors for protecting cells” (UNIVERSITY OF KENTUCKY RESEARCH FOUNDATION, priority 2011, dated 2016).

Key:
phagosomal ROS = test: Phagosomal ROS in human RPE cells (Fc OXYBURST Green); format: cell-based
Protocol: Cellular ROS production was assessed using the ROS-specific probe 2′7′-dichlorodihydrofluorescin diacetate (H2DCFDA, BioChemica, Fluka). Mitochondrial ROS production was assessed using MitoSOX™ Red (Invitrogen). Sub-confluent human RPE cells were transfected with pNull or pAlu. After 24 h cells were loaded for 10 min at 37° C. with 10 μM H2DCFDA or MitoSOX™ Red (Invitrogen) mitochondrial superoxide indicator for live-cell imaging and washed twice with PBS. For H2DCFDA, fluorescence was recorded in 96-well plate using with a Synergy 4 reader (Biotek) using a FITC filter (excitation 485 nm, emission 538 nm). To visualize respiring mitochondria for colocalization with the mitochondrial ROS signal, after PBS wash cells were incubated with MitoTracker Deep Red™ (Invitrogen) for 30 min at 37° C. and then washed twice with PBS. The fluorescent signals were detected using Leica SP-5 or Zeiss Axio Observer Z1 microscopes. Phagosomal ROS production was assessed using the Fc-OXYBURST Green™ assay (Invitrogen). Sub-confluent human RPE cells were transfected with pNull or pAlu, or treated with PMA (0.5 μg/ml; Sigma-Aldrich). […] The total fluorescence from the cells was measured immediately after adding Fc-OXYBURST Green™ with a Synergy 4 reader (Biotek) using FITC filter (excitation 485 nm, emission 538 nm).

RPE [1] = test: pAlu-induced RPE degeneration in wild-type mice, inhibitors given intravitreously; format: in vivo; details: WT mice, subretinal pAlu, inhibitor intravitreous, fundus photographs and ZO-1 flat mounts
Protocol: (§1) Subretinal injection and imaging. Subretinal injections (1 μL) were performed using a Pico-Injector (PLI-100, Harvard Apparatus). Plasmids were transfected in vivo using 10% Neuroporter (Genlantis). Fundus imaging was performed on a TRC-50 IX camera (Topcon) linked to a digital imaging system (Sony). RPE flat mounts were immunolabeled using antibodies against zonula occludens-1 (Invitrogen).
Retinal photographs of dilated mouse eyes were taken with a TRC-50 IX camera (Topcon) linked to a digital imaging system (Sony).
Human eyes fixed in 2-4% paraformaldehyde were prepared as eyecups, cryoprotected in 30% sucrose, embedded in optimal cutting temperature compound (Tissue-Tek OCT; Sakura Finetek), and cryosectioned into 10 μm sections. Depigmentation was achieved using 0.25% potassium permanganate and 0.1% oxalic acid. Immunohistochemical staining was performed with the rabbit antibody against NLRP3 (1:100, Sigma Aldrich) or rabbit antibody against Caspase-1 (prediluted, AbCam). Isotype IgG was substituted for the primary antibody to assess the specificity of the staining. Bound antibody was detected with biotin-conjugated secondary antibodies, followed by incubation with ABC reagent and visualized by Vector Blue (Vector Laboratories). Levamisole (Vector Laboratories) was used to block endogenous alkaline phosphatase activity. Slides were washed in PBS, counterstained with neutral red (Fisher Scientific), rinsed with deionized water, air dried, and then mounted in Vectamount (Vector Laboratories). Fluorescent labeling of human tissue was performed with the rabbit antibody against PYCARD (1:50, Clone N-15, Santa Cruz Biotechnology) Immunolabeling was visualized by fluorescently conjugated anti-rabbit secondary antibody (Invitrogen). Tissue autofluorescence was quenched by incubating the sections in 0.3% Sudan black (Fisher Scientific). Sections were mounted in Vectashield with DAPI (Vector Laboratories). Mouse RPE/choroid flat mounts were fixed with 4% paraformaldehyde or 100% methanol, stained with rabbit antibodies against human zonula occludens-1 (1:100, Invitrogen) and visualized with Alexa594 (Invitrogen). All images were obtained using the Leica SP-5 or Zeiss Axio Observer Z1 microscopes.
(§2) Subretinal injections (1 μL) in mice were performed using a Pico-Injector (PLI-100, Harvard Apparatus). In vivo transfection of plasmids coding for two different Alu sequences (pAlu) or empty control vector (pNull) (Bennett et al., 2008; Kaneko et al., 2011; Shaikh et al., 1997) was achieved using 10% Neuroporter (Genlantis). AAV1-BEST1-Cre (Alexander and Hauswirth, 2008) or AAV1-BEST1-GFP were injected at 1.0×10^11 pfu/mL and in vitro transcribed Alu RNA was injected at 0.3 mg/mL.
siRNAs formulated in siRNA buffer (20 mM KCL, 0.2 mM MgCl2 in HEPES buffer at pH 7.5; Dharmacon) or phosphate buffered saline (PBS; Sigma-Aldrich); the TLR4 antagonist Ultra Pure Rhodobacter sphaeroides LPS (LPS-RS, InvivoGen), a peptide inhibitor of MyD88 homodimerization IMG-2005 (IMGENEX), control inhibitor (IMGENEX), recombinant IL-18 (Medical & Biological Laboratories), neutralizing rat antibodies against mouse IL-1β (IMGENEX), neutralizing rat antibodies against mouse IL-18 (Medical & Biological Laboratories), isotype control IgGs (R&D Systems or eBioscience as appropriate), Caspase-1 inhibitor Z-WEHD-FMK (R&D Systems), Caspase control inhibitor Z-FA-FMK (R&D Systems), DPI (Enzo Life Sciences), Mito-TEMPO (Enzo Life Sciences), MitoQ and dTPP (both adsorbed to cyclodextrin and provided by M.P. Murphy, MRC Mitochondrial Biology Unit), and gp91ds-tat and scrambled gp91 ds-tat (both Anaspec), were dissolved in phosphate buffered saline (PBS; Sigma-Aldrich) or dimethyl sulfoxide (DMSO; Sigma-Aldrich), and injected into the vitreous humor in a total volume of 1 μL with a 33-gauge Exmire microsyringe (Ito Corporation). […] As a control, Luc siRNA-chol (17+2 nt) was used with identical dosages. […]

MyD88 = MyD88 knockdown in mouse RPE cells; format: cell-based; details: compared to control siRNA
Description: Total RNA was extracted from tissues or cells using Trizol reagent (Invitrogen) according to manufacturer's recommendations, DNase treated and reverse transcribed (QuantiTect, Qiagen). The RT products (cDNA) were amplified by real-time quantitative PCR (Applied Biosystems 7900 HT Fast Real-Time PCR system) with Power SYBR green Master Mix. […] For negative controls, no RT products were used as templates in the QPCR and verified by the absence of gel-detected bands. Relative expressions of target genes were determined by the 2^−ΔΔCt method.
Tissues or cells were homogenized in lysis buffer (10 mM Tris base, pH 7.4, 150 mM NaCl, 1 mM EDTA, 1 mM EGTA, 1% Triton X-100, 0.5% NP-40, protease and phosphatase inhibitor cocktail (Roche)). Protein concentrations were determined using a Bradford assay kit (Bio-Rad) with bovine serum albumin as a standard. […] Protein loading was assessed by immunoblotting using an anti-Vinculin antibody (1:1,000; Sigma-Aldrich). […]

RPE [2] = test: RPE degeneration after subretinal delivery in mice (wild-type and deficient strains); format: in vivo
Protocol: as §1
All animal experiments were approved by institutional review committees and in accordance with the Association for Research in Vision and Ophthalmology Statement for the Use of Animals in Ophthalmic and Visual Research. Wild-type C57BL/6J, Cybb^−/−, Tlr3^−1−, Tlr4^−/− (C57BL/10ScNJ), Trif^−/− (Ticam1^Lps2), Ifng^−/−, Ifngr1^−/−, Il1r1^−1−, Il18r1^−1−, Myd88^f/f, and Dicer1^f/f mice were purchased from The Jackson Laboratory. Casp1^−1−, Nbp3^−/−, and Pycard^−/− mice have been previously described (Kanneganti et al., 2006). Unc93b1 mutant mice were generously provided by B. A. Beutler via K. Fitzgerald. Myd88^−/− and Tlr7^−/− mice were generously provided by S. Akira via T. Hawn and D. T. Golenbock. Mda5^−/− mice were generously provided by M. Colonna. […] Mavs^−/− mice were generously provided by Z. Chen via K. Fitzgerald. For all procedures, anesthesia was achieved by intraperitoneal injection of 100 mg/kg ketamine hydrochloride (Ft. Dodge Animal Health) and 10 mg/kg xylazine (Phoenix Scientific), and pupils were dilated with topical 1% tropicamide (Alcon Laboratories).
as §2
Bone marrow transplantation was used to create Myd88^−/− chimera mice wherein the genetic deficiency of Myd88 was confined to either circulating cells (Myd88^−/− →WT) or nonhematopoietic tissue (WT→Myd88^−/−). Briefly, bone marrows were collected from femur and tibia of congenic WT or Myd88^−/− donor mice by flushing with RPMI1640. After two washing steps, cells were resuspended in RPMI1640. 1×10^7 cells in 150 μL of RPMI1640 were injected into the tail vein of irradiated […] mice. Two chimera groups were generated: WT→Myd88^−/− (WT cells into Myd88^−/− mice) and Myd88→WT (Myd88 cells into WT mice). 2 months after bone marrow transfer, mice were injected subretinally with Alu RNA, vehicle, pAlu, or pNull, and monitored for RPE degeneration 7 days later. […]

Caspase-8 = Caspase-8 activation in the RPE of wild-type mice (fluorometric assay); format: in vivo; details: subretinal injection
Protocol: RPE tissues were homogenized in lysis buffer (10 mM Tris base, pH 7.4, 150 mM NaCl, 1 mM EDTA, 1 mM EGTA, 1% Triton X-100, 0.5% NP-40, protease and phosphatase inhibitor cocktail (Roche)). Protein concentrations were determined using a Bradford assay kit (Bio-Rad) with bovine serum albumin as a standard. The […] activity was measured using Caspase-8 Fluorimetric Assay (R&D) in according to the manufacturer's instructions.

Molecule: CCCCCCCCCCCCCC(=O)O[C@@H]1[C@@H](C)[C@@]2(O)[C@@H](C=C(CO)C[C@]3(O)C(=O)C(C)=C[C@@H]23)[C@@H]2C(C)(C)[C@]12OC(C)=O [PMA, phorbol myristate acetate]
- phagosomal ROS (phagosomal ROS): induced phagosomal ROS

Molecule: 5′-CAGAGCAAGGAAUGUGAdTdT-3′ [cholesterol-conjugated Myd88 siRNA]
- pAlu-induced RPE degeneration (RPE [1]): inhibited
- pAlu-induced RPE degeneration (RPE [1]; listed as MyD88-targeting short interfering RNA): inhibited RPE degeneration
- target gene and protein abundance (MyD88) (MyD88): reduces

Molecule: Recombinant IL-18: recombinant IL-18 (Medical & Biological Laboratories)
- RPE degeneration after subretinal delivery (RPE [2]; CD95−/− (Fas lpr) mice): did not induce RPE degeneration
- RPE degeneration after subretinal delivery (RPE [2]; Casp1−/− mice): induced RPE degeneration
- RPE degeneration after subretinal delivery (RPE [2]; Faslg−/− (Fasl gld) mice): did not induce RPE degeneration
- RPE degeneration after subretinal delivery (RPE [2]; WT mice): induced RPE degeneration
- activation of Caspase-8 (Caspase-8; listed as IL-18): induced activation of caspase-8
- activation of Caspase-8 (Caspase-8; listed as recombinant IL-18): induced activation of Caspase-8
